From article PMC13099078 (2023)

How the values were obtained:
[1] = tested on: vancomycin-binding aptamer (45-base; EAB sensor) (DNA, aptamer) CGAGGGTACCGCAATAGTACTTATTGTTCGCCTATTGTGGGTCGG; test: differential pulse voltammetry; conditions: 2 mM Mg2+, PBS; 1x PBS, 37°C; apparent; Langmuir fit
[2] = tested on: vancomycin-binding aptamer (45-base; EAB sensor) (DNA, aptamer) CGAGGGTACCGCAATAGTACTTATTGTTCGCCTATTGTGGGTCGG; test: alternating current voltammetry; conditions: 2 mM Mg2+, PBS; 1x PBS, 37°C; apparent; Langmuir fit; 50 and 5 Hz

Kd [1]: 76 ± 6 µM
Kd [2]: 46 ± 4 µM
Structure (SMILES): CN[C@H](CC(C)C)C(=O)N[C@H]1C(=O)N[C@@H](CC(N)=O)C(=O)N[C@H]2C(=O)N[C@H]3C(=O)N[C@H](C(=O)N[C@H](C(=O)O)c4cc(O)cc(O)c4-c4cc3ccc4O)[C@H](O)c3ccc(c(Cl)c3)Oc3cc2cc(c3O[C@@H]2O[C@H](CO)[C@@H](O)[C@H](O)[C@H]2O[C@H]2C[C@](C)(N)[C@H](O)[C@H](C)O2)Oc2ccc(cc2Cl)[C@H]1O
